# “Also recorded” adds a separate entry of the source.
# Legend:
# physchem = conditions: for solubility at 18 h: water
# Protocol: 10 mg of each of paclitaxel, 7-GAG-PT, 7-MAG-PT, 10-GAG-DT (α-anomer), 10-GAG-DT (β-anomer) and 10-MAG-DT (α-anomer)was weighed. To those were added 5 ml of water and the mixture was stirred for 18 hours. After completion of the stirring, supernatant was filtered through a membrane filter (0.45 μm), and the filtrate was analyzed by HPLC. The conditions of HPLC analysis were as follows.
# P388 leukemia cells = assay: Antitumor test in mice implanted with P388 leukemia cells: survival days; type: in vivo, mouse; conditions: for Median of Survival Days: P388 i.p. in CDF1 male mice, control 7 days; for Median of Survival Days / % T/C: 20 mg/kg i.p., 5 consecutive days; for % T/C: median survival days treated × 100 / median of control
# Description: ^a) Median of survival days of each treated group (day) ×
# 100/Median of survival days of control group (day)
# [1] = cited from earlier work; for Solubility in water: background statement
# [2] = Change in body weight of P388 leukemia cell implanted mice; type: in vivo, mouse; conditions: after i.p. administration
# Protocol: FIG. 1 is a graph illustrating effect of taxoid derivatives on the body weight of P388 leukemia cell implanted mouse.
# The mice used were 7 weeks age CDFl mice (male). P388 leukemia cells subcultured in DBA/2 mouse abdominal cavity were injected in the abdominal cavity in an amount of 10^6 cells per mouse. In the case of paclitaxel, samples were dissolved in a solution of ethanol:cremophor=1:1 to a concentration of 6 mg/ml and then diluted 30 times with physiological saline. This was administered intraperitoneally in a dose of 0.1 ml/10 g mouse/time. In the case of taxoid derivatives, samples were dissolved in a solution of ethanol:cremophor=1:1 to a concentration of 60 mg/ml and then diluted 30 times with physiological saline. This was administered intraperitoneally in a dose of 0.1 ml/10 g mouse/time.
# The tests were performed by administering the sample for consecutive 5 days starting from the day next to the day when the P388 leukemia cells were injected into the abodominal cavity and observing survival days and change in body weight.
# [3] = ratio to paclitaxel (0.4 μg/ml)
SMILES,Solubility in water relative to paclitaxel (physchem) [times],solubility at 18 h (physchem) [µg/mL],Median of Survival Days (P388 leukemia cells) [days],% T/C (P388 leukemia cells) [%],also measured
"CC(=O)O[C@@]12CO[C@@H]1C[C@H](O)[C@@]1(C)C(=O)[C@H](OC(=O)CO[C@H]3O[C@H](CO)[C@@H](O)[C@H](O)[C@@H]3O)C3=C(C)[C@@H](OC(=O)[C@H](O)[C@@H](NC(=O)OC(C)(C)C)c4ccccc4)C[C@@](O)([C@@H](OC(=O)c4ccccc4)[C@H]21)C3(C)C [10-MAG-DT (α-anomer), Mannosyloxyacetyl-10-docetaxel]",2596,1040,9,129,–
"CC(=O)O[C@@]12CO[C@@H]1C[C@H](O)[C@@]1(C)C(=O)[C@H](O)C3=C(C)[C@@H](OC(=O)[C@H](O)[C@@H](NC(=O)OC(C)(C)C)c4ccccc4)C[C@@](O)([C@@H](OC(=O)c4ccccc4)[C@H]21)C3(C)C [Docetaxel, docetaxel]",–,–,–,–,"Solubility in water of docetaxel relative to taxol ([1]; I. Ringel et al., J. Natl. Cancer Inst., 83, 288 (1991)): 35 times; Solubility in water [1]: very low solubility in water"
"CC(=O)O[C@@]12CO[C@@H]1C[C@H](O)[C@@]1(C)C(=O)[C@H](OC(=O)CO[C@H]3O[C@H](CO)[C@H](O)[C@H](O)[C@H]3O)C3=C(C)[C@@H](OC(=O)[C@H](O)[C@@H](NC(=O)OC(C)(C)C)c4ccccc4)C[C@@](O)([C@@H](OC(=O)c4ccccc4)[C@H]21)C3(C)C [10-GAG-DT (α-anomer), Galactosyloxyacetyl-10-docetaxel]",1204,482,12,171,–
"CC(=O)O[C@@]12CO[C@@H]1C[C@H](O)[C@@]1(C)C(=O)[C@H](OC(=O)COC3O[C@H](CO)[C@H](O)[C@H](O)[C@H]3O)C3=C(C)[C@@H](OC(=O)[C@H](O)[C@@H](NC(=O)OC(C)(C)C)c4ccccc4)C[C@@](O)([C@@H](OC(=O)c4ccccc4)[C@H]21)C3(C)C (stereo partly shown) [10-GAG-DT, Galactosyloxyacetyl-10-docetaxel]",–,–,–,–,"Antitumor / physiological activity (P388 leukemia cells; P388 leukemia implanted mice): excellent antitumor activity; Survival effect as compared with paclitaxel (P388 leukemia cells; P388 leukemia implanted mice, ratio to paclitaxel): 1.2 times"
"CC(=O)O[C@@]12CO[C@@H]1C[C@H](O)[C@@]1(C)C(=O)[C@H](OC(=O)COC3O[C@H](CO)[C@@H](O)[C@H](O)[C@@H]3O)C3=C(C)[C@@H](OC(=O)[C@H](O)[C@@H](NC(=O)OC(C)(C)C)c4ccccc4)C[C@@](O)([C@@H](OC(=O)c4ccccc4)[C@H]21)C3(C)C (stereo partly shown) [10-MAG-DT, Mannosyloxyacetyl-10-docetaxel]",–,–,–,–,"Survival effect as compared with paclitaxel (P388 leukemia cells; P388 leukemia implanted mice, versus paclitaxel): substantially equivalent to that of paclitaxel"
"CC(=O)O[C@H]1C(=O)[C@]2(C)[C@@H](OC(=O)COC3O[C@H](CO)[C@H](O)[C@H](O)[C@H]3O)C[C@H]3OC[C@@]3(OC(C)=O)[C@H]2[C@H](OC(=O)c2ccccc2)[C@]2(O)C[C@H](OC(=O)[C@H](O)[C@@H](NC(=O)c3ccccc3)c3ccccc3)C(C)=C1C2(C)C (stereo partly shown) [7-GAG-PT, Galactosyloxyacetyl-7-paclitaxel]",–,67.8,–,–,Solubility in water relative to paclitaxel (physchem; [3]): 169 times
"CC(=O)O[C@H]1C(=O)[C@@]2(C)[C@H]([C@H](OC(=O)c3ccccc3)[C@]3(O)C[C@H](OC(=O)[C@H](O)[C@@H](NC(=O)c4ccccc4)c4ccccc4)C(C)=C1C3(C)C)[C@]1(OC(C)=O)CO[C@@H]1C[C@@H]2O [Paclitaxel, paclitaxel]",–,–,10,143,Solubility in water [1]: very low solubility in water; also recorded: low solubility in water; Change in body weight [2]: abrupt decrease in body weight; also recorded: decreased abruptly
"CC(=O)O[C@@]12CO[C@@H]1C[C@H](O)[C@@]1(C)C(=O)[C@H](OC(=O)CO[C@@H]3O[C@H](CO)[C@H](O)[C@H](O)[C@H]3O)C3=C(C)[C@@H](OC(=O)[C@H](O)[C@@H](NC(=O)OC(C)(C)C)c4ccccc4)C[C@@](O)([C@@H](OC(=O)c4ccccc4)[C@H]21)C3(C)C [10-GAG-DT (β-anomer), Galactosyloxyacetyl-10-docetaxel]",753,301,12,171,–
"CC(=O)O[C@H]1C(=O)[C@]2(C)[C@@H](OC(=O)COC3O[C@H](CO)[C@@H](O)[C@H](O)[C@@H]3O)C[C@H]3OC[C@@]3(OC(C)=O)[C@H]2[C@H](OC(=O)c2ccccc2)[C@]2(O)C[C@H](OC(=O)[C@H](O)[C@@H](NC(=O)c3ccccc3)c3ccccc3)C(C)=C1C2(C)C (stereo partly shown) [7-MAG-PT, Mannosyloxyacetyl-7-paclitaxel]",–,103,–,–,Solubility in water relative to paclitaxel (physchem; [3]): 257 times

# — patent US6306893A, “Taxoid derivatives and process for producing the same” (Ensuiko Sugar Refining Company, Ltd, priority 2000, dated 2001)
